In US5138069A (E. I. Du Pont de Nemours and Company, priority 1988, dated 1992):
Read-outs that look alike come from different tables or passages of the source.

Tests used:
AII receptor = assay: Angiotensin II receptor binding (displacement of 3H-AII); settings: read-out: Angiotensin II Receptor Binding IC50, Table 25, rat adrenal cortical microsomes, 2 nM 3H-AII, 1 hour, room temperature
Experimental: The assay was carried out according to the method described by [Glossmann et al., J. Biol. Chem., 249, 825 (1974)], but with some modifications. The reaction mixture contained rat adrenal cortical microsomes (source of AII receptor) in Tris buffer and 2 nM of ^3 H-AII with or without potential AII antagonist. This mixture was incubated for 1 hour at room temperature and the reaction was subsequently terminated by rapid filtration and rinsing through glass micro-fibre filter. Receptor-bound ^3 H-AII trapped in filter was quantitated by scintillation counting.
(§1) Compounds listed in Table 26 were tested in the same manner as described for Table 25, except that in the test for antihypertensive effects in renal hypertensive rats, the compounds were administered orally at 30 mg/kg and intravenously at 3 mg/kg.

Renal Hypertensive Rats = assay: Antihypertensive effects in renal hypertensive rats; format: in vivo; settings: Rattus norvegicus, Table 25; for minimal effective dose at 100 mg/kg: oral, 100 mg/kg or less; for minimal effective dose at 10 mg/kg: intravenous, 10 mg/kg or less
Experimental: This procedure increases blood pressure by increasing renin production with consequent elevation of AII levels. Compounds are administered orally at 100 mg/kg and/or intravenously via a cannula in the jugular vein at 10 mg/kg. Arterial blood pressure is continuously measured directly through a carotid artery cannula and recorded using a pressure transducer and a polygraph. Blood pressure levels after treatment are compared to pretreatment levels to determine the antihypertensive effects of the compounds (See Table 25).
as §1

| Compound | IC50 (AII receptor; tested as sodium salt) [nM] | minimal effective dose at 100 mg/kg (Renal Hypertensive Rats; tested as sodium salt) [mg/kg] | minimal effective dose at 10 mg/kg (Renal Hypertensive Rats; tested as sodium salt) [mg/kg] | IC50 (AII receptor) [nM] | minimal effective dose at 10 mg/kg (Renal Hypertensive Rats) [mg/kg] | minimal effective dose at 100 mg/kg (Renal Hypertensive Rats) [mg/kg] |
| --- | --- | --- | --- | --- | --- | --- |
| CCCCc1nc(Cl)c(Cc2nnn[nH]2)n1Cc1cccc(-c2nnn[nH]2)c1 [Example 26, 2-Butyl-4-chloro-5-[(1H-tetrazol-5-yl)methyl]-1-[3-(1H-tetrazol-5-yl)benzyl]imidazole] | 3800 | > 100 | – | – | – | – |
| CCCCc1nc(Cl)c(Cc2nnn[nH]2)n1Cc1ccc(-c2nnn[nH]2)cc1 [Example 27, 2-Butyl-4-chloro-5-[(1H-tetrazol-5-yl)methyl]-1-[4-(1H-tetrazol-5-yl)benzyl]imidazole] | 1200 | < 100 | < 10 | – | – | – |
| CCCCc1nc(Cl)c(CC(=O)OC)n1Cc1ccc(N2C(=O)c3ccccc3C2=O)cc1 [Example 29, Methyl 2-butyl-4-chloro-1-(4-N-phthalimidobenzyl)imidazole-5-acetate] | – | – | – | 3100 | < 10 | > 100 |
| CCCCc1nc(Cl)c(CC(=O)OC)n1Cc1ccc(NC(=O)c2ccccc2NS(=O)(=O)C(F)(F)F)cc1 [Example 30, Methyl 2-butyl-4-chloro-1-[4-((N-trifluoromethanesulfonyl)anthranilamido)benzyl]-imidazole-5-acetate] | 390 | < 100 | < 10 | – | – | – |
| CCCCc1nc(Cl)c(CC(=O)OC)n1Cc1ccc(NC(=O)c2cc(I)ccc2NS(=O)(=O)C(F)(F)F)cc1 [Example 35] | 3400 | < 100 | < 10 | – | – | – |
| CCCCc1nc(Cl)c(CC(=O)OC)n1Cc1ccc(NC(=O)c2cccc(C)c2NS(=O)(=O)C(F)(F)F)cc1 [Example 36] | 190 | > 100 | < 10 | – | – | – |
| CCCCc1nc(Cl)c(CC(=O)OC)n1Cc1ccc(NC(=O)c2ccccc2NS(C)(=O)=O)cc1 [Example 51] | – | – | – | 2300 | > 100 | > 100 |
| CCCCc1nc(Cl)c(CC(=O)OC)n1Cc1ccc(NC(=O)c2cc(C)ccc2NS(=O)(=O)C(F)(F)F)cc1 [Example 53A] | – | – | – | 810 | > 100 | > 100 |
| CCCCc1nc(Cl)c(CO)n1Cc1ccc(NC(=O)c2ccccc2NS(=O)(=O)C(F)(F)F)cc1 [Example 53B] | – | – | – | 360 | < 10 | – |
| CCCCc1ncc(CO)n1Cc1ccc(NC(=O)c2ccccc2NS(=O)(=O)C(F)(F)F)cc1 [Example 53C] | – | – | – | 210 | < 10 | – |
| CCCCCCCc1nc(Cl)c(CO)n1Cc1ccc(NC(=O)c2ccccc2NS(=O)(=O)C(F)(F)F)cc1 [Example 54, 4-Chloro-2-heptyl-5-hydroxymethyl-1-[4-((N-trifluoromethanesulfonyl)-anthranilamido)benzyl]imidazole] | – | – | – | 7200 | < 10 | – |
| COCCc1nc(Cl)c(CO)n1Cc1ccc(NC(=O)c2ccccc2C(=O)O)cc1 [Example 55, 1-[4-(2-Carboxybenzamido)-benzyl]-4-chloro-5-hydroxymethyl-2-(2-methoxyethyl)imidazole] | – | – | – | 930 | < 10 | > 100 |
| CCc1nccn1Cc1ccc(NC(=O)c2ccccc2NS(=O)(=O)C(F)(F)F)cc1 [Example 57] | – | – | – | 4900 | < 10 | > 100 |
| CC(C)c1nccn1Cc1ccc(NC(=O)c2ccccc2NS(=O)(=O)C(F)(F)F)cc1 [Example 58] | – | – | – | 8300 | < 10 | > 100 |
| CCCCc1nccn1Cc1ccc(NC(=O)c2ccccc2NS(=O)(=O)C(F)(F)F)cc1 [Example 59] | – | – | – | 3000 | > 100 | > 100 |
| CCCc1nccn1Cc1ccc(NC(=O)c2ccccc2C(=O)O)cc1 [Example 63] | 3700 | > 100 | – | – | – | – |
| CCCCc1nccn1Cc1ccc(NC(=O)c2ccccc2C(=O)O)cc1 [Example 64] | – | – | – | 620 | < 10 | > 100 |
